Earlier results, collected in patent CN103919735A, “一种盐酸坦索罗辛缓释微丸及其制备方法” (Pharmaceutical (wuhan) Co Ltd, priority 2014, dated 2014).

Test system: BPH patients [BPH患者]
Conditions: for relief of LUTS caused by BPH (in words): large number of studies

CCOc1ccccc1OCCN[C@H](C)Cc1ccc(OC)c(S(N)(=O)=O)c1 [盐酸坦索罗辛]
efficacy in long-term use (in words) (clinical study of 6 years in BPH, stated for α1 receptor blockers): 能够维持稳定的疗效 | time to symptom improvement after treatment (clinical, BPH): 48 h | relief of LUTS caused by BPH (in words): 均能有效缓解

CC(C)(C)NC(=O)[C@H]1CC[C@H]2[C@@H]3CC[C@H]4NC(=O)C=C[C@]4(C)[C@H]3CC[C@]12C [非那雄胺]
relief of LUTS caused by BPH (in words): 均能有效缓解
